Results from the NIST ThermoML archive (doi:10.1016/j.jct.2010.12.028).
± gives the expanded uncertainty stated by the source.

Experiments:
[1] = xn = mol fraction of the nth substance listed; conditions: 101 kPa, Liquid; for speed of sound: Sing-around technique in a fixed-path interferometer; for mass density: Vibrating tube method
[2] = excess molar enthalpy (molar enthalpy of mixing); xn = mol fraction of the nth substance listed; conditions: 308.15 K, 101 kPa, Liquid

Cc1cccnc1 [3-methylpyridine] + Cc1ccccc1N
Conditions	excess molar enthalpy, two-drop calorimeter [kcal/mol]	mass density, 298.15 K [kg/m3]	mass density, 303.15 K [kg/m3]	mass density, 308.15 K [kg/m3]	speed of sound, 298.15 K [m/s]	speed of sound, 303.15 K [m/s]	speed of sound, 308.15 K [m/s]
[1], x2 = 0.0447	–	955.059 ± 0.24	950.551 ± 0.24	945.98 ± 0.24	1433 ± 2.3	1413 ± 2.3	1393.3 ± 2.3
[1], x2 = 0.1132	–	959.404 ± 0.24	954.953 ± 0.24	950.452 ± 0.24	1446.4 ± 2.3	1426.4 ± 2.3	1407 ± 2.3
[1], x2 = 0.1771	–	963.134 ± 0.24	958.721 ± 0.24	954.262 ± 0.24	1458.6 ± 2.3	1438.8 ± 2.3	1419.5 ± 2.3
[1], x2 = 0.2069	–	964.775 ± 0.24	960.381 ± 0.24	955.934 ± 0.24	1464.1 ± 2.3	1444.5 ± 2.3	1425.1 ± 2.3
[1], x2 = 0.2467	–	966.875 ± 0.24	962.502 ± 0.24	958.079 ± 0.24	1471.5 ± 2.3	1451.9 ± 2.3	1432.5 ± 2.3
[1], x2 = 0.2888	–	968.994 ± 0.24	964.629 ± 0.24	960.232 ± 0.24	1479.1 ± 2.3	1459.8 ± 2.3	1440.4 ± 2.3
[1], x2 = 0.3112	–	970.081 ± 0.24	965.722 ± 0.24	961.335 ± 0.24	1483.1 ± 2.3	1463.9 ± 2.3	1444.3 ± 2.3
[1], x2 = 0.3624	–	972.469 ± 0.24	968.119 ± 0.24	963.751 ± 0.24	1492.2 ± 2.4	1473.1 ± 2.3	1453.4 ± 2.3
[1], x2 = 0.4182	–	974.916 ± 0.24	970.586 ± 0.24	966.234 ± 0.24	1502 ± 2.4	1483 ± 2.3	1463.2 ± 2.3
[1], x2 = 0.4632	–	976.799 ± 0.24	972.478 ± 0.24	968.134 ± 0.24	1509.7 ± 2.4	1490.6 ± 2.4	1470.9 ± 2.3
[1], x2 = 0.5336	–	979.577 ± 0.24	975.273 ± 0.24	970.94 ± 0.24	1521.7 ± 2.4	1502.6 ± 2.3	1482.7 ± 2.3
[1], x2 = 0.5778	–	981.226 ± 0.24	976.931 ± 0.24	972.616 ± 0.24	1529.2 ± 2.4	1509.7 ± 2.4	1489.9 ± 2.3
[1], x2 = 0.6334	–	983.223 ± 0.24	978.936 ± 0.24	974.642 ± 0.24	1538.6 ± 2.4	1518.8 ± 2.4	1499 ± 2.4
[1], x2 = 0.6967	–	985.375 ± 0.24	981.112 ± 0.24	976.836 ± 0.24	1549.2 ± 2.4	1528.8 ± 2.3	1509.3 ± 2.4
[1], x2 = 0.7372	–	986.701 ± 0.24	982.449 ± 0.24	978.187 ± 0.24	1556 ± 2.4	1535.1 ± 2.4	1515.8 ± 2.4
[1], x2 = 0.8156	–	989.151 ± 0.24	984.927 ± 0.24	980.689 ± 0.24	1569.5 ± 2.4	1547.5 ± 2.4	1528.4 ± 2.4
[1], x2 = 0.8842	–	991.171 ± 0.23	986.982 ± 0.24	982.772 ± 0.24	1581.5 ± 2.4	1558.4 ± 2.4	1539.5 ± 2.4
[1], x2 = 0.9711	–	993.588 ± 0.23	989.441 ± 0.23	985.272 ± 0.24	1597.2 ± 2.4	1572.8 ± 2.4	1553.6 ± 2.4
[2], x2 = 0.0503	-0.0794 ± 0.00359	–	–	–	–	–	–
[2], x2 = 0.0843	-0.125 ± 0.00526	–	–	–	–	–	–
[2], x2 = 0.1425	-0.194 ± 0.00789	–	–	–	–	–	–
[2], x2 = 0.1901	-0.236 ± 0.00956	–	–	–	–	–	–
[2], x2 = 0.2323	-0.268 ± 0.011	–	–	–	–	–	–
[2], x2 = 0.2837	-0.301 ± 0.0122	–	–	–	–	–	–
[2], x2 = 0.3334	-0.321 ± 0.0131	–	–	–	–	–	–
[2], x2 = 0.3783	-0.334 ± 0.0136	–	–	–	–	–	–
[2], x2 = 0.4436	-0.337 ± 0.0136	–	–	–	–	–	–
[2], x2 = 0.4926	-0.337 ± 0.0136	–	–	–	–	–	–
[2], x2 = 0.5487	-0.323 ± 0.0131	–	–	–	–	–	–
[2], x2 = 0.5902	-0.312 ± 0.0127	–	–	–	–	–	–
[2], x2 = 0.6643	-0.281 ± 0.0115	–	–	–	–	–	–
[2], x2 = 0.7182	-0.248 ± 0.01	–	–	–	–	–	–
[2], x2 = 0.7789	-0.209 ± 0.0086	–	–	–	–	–	–
[2], x2 = 0.8348	-0.163 ± 0.00669	–	–	–	–	–	–
[2], x2 = 0.8937	-0.11 ± 0.00454	–	–	–	–	–	–

Cc1ccncc1 [4-methylpyridine] + Cc1ccccc1N
[1]
Conditions	mass density, 298.15 K [kg/m3]	mass density, 303.15 K [kg/m3]	mass density, 308.15 K [kg/m3]	speed of sound, 298.15 K [m/s]	speed of sound, 303.15 K [m/s]	speed of sound, 308.15 K [m/s]
x2 = 0.0525	953.707 ± 0.24	949.033 ± 0.24	944.539 ± 0.24	1440.5 ± 2.3	1419.5 ± 2.3	1399.3 ± 2.3
x2 = 0.1236	958.201 ± 0.24	953.635 ± 0.24	949.213 ± 0.24	1452.6 ± 2.3	1431.8 ± 2.3	1412.2 ± 2.3
x2 = 0.1357	958.939 ± 0.24	954.384 ± 0.24	949.974 ± 0.24	1454.8 ± 2.3	1433.9 ± 2.3	1414.4 ± 2.3
x2 = 0.1839	961.774 ± 0.24	957.264 ± 0.24	952.886 ± 0.24	1463.1 ± 2.3	1442.5 ± 2.3	1423.2 ± 2.3
x2 = 0.2328	964.507 ± 0.24	960.045 ± 0.24	955.673 ± 0.24	1471.4 ± 2.3	1451.2 ± 2.3	1432.1 ± 2.3
x2 = 0.2655	966.252 ± 0.24	961.821 ± 0.24	957.455 ± 0.24	1477.1 ± 2.3	1457 ± 2.3	1438.1 ± 2.3
x2 = 0.3023	968.154 ± 0.24	963.746 ± 0.24	959.382 ± 0.24	1483.4 ± 2.3	1463.5 ± 2.3	1444.7 ± 2.3
x2 = 0.3539	970.688 ± 0.24	966.314 ± 0.24	961.964 ± 0.24	1492.2 ± 2.4	1472.7 ± 2.3	1453.9 ± 2.3
x2 = 0.4133	973.431 ± 0.24	969.1 ± 0.2	964.753 ± 0.24	1502.4 ± 2.4	1483 ± 2.3	1464.4 ± 2.3
x2 = 0.4863	976.578 ± 0.24	972.285 ± 0.24	967.972 ± 0.24	1514.7 ± 2.4	1495.5 ± 2.4	1476.8 ± 2.3
x2 = 0.5256	978.183 ± 0.24	973.912 ± 0.24	969.611 ± 0.24	1521.3 ± 2.4	1501.9 ± 2.4	1483.2 ± 2.3
x2 = 0.5671	979.804 ± 0.24	975.56 ± 0.24	971.274 ± 0.24	1528.2 ± 2.4	1508.7 ± 2.4	1490 ± 2.3
x2 = 0.6272	982.039 ± 0.24	977.832 ± 0.24	973.587 ± 0.24	1538.3 ± 2.4	1518.4 ± 2.4	1499.7 ± 2.3
x2 = 0.6963	984.487 ± 0.24	980.309 ± 0.24	976.116 ± 0.24	1549.8 ± 2.4	1529.2 ± 2.4	1510.4 ± 2.4
x2 = 0.7674	986.874 ± 0.24	982.738 ± 0.24	978.601 ± 0.24	1561.7 ± 2.4	1540.2 ± 2.4	1521.3 ± 2.4
x2 = 0.8234	988.699 ± 0.24	984.584 ± 0.24	980.475 ± 0.24	1571.2 ± 2.4	1548.8 ± 2.4	1530 ± 2.4
x2 = 0.8657	990.061 ± 0.24	985.955 ± 0.24	981.851 ± 0.24	1578.4 ± 2.4	1555.4 ± 2.4	1536.6 ± 2.4
x2 = 0.9537	992.867 ± 0.24	988.752 ± 0.24	984.639 ± 0.24	1594 ± 2.4	1569.8 ± 2.4	1550.6 ± 2.4

[2]
Conditions	excess molar enthalpy [kcal/mol]
x2 = 0.0426	-0.0583 ± 0.00263
x2 = 0.0815	-0.106 ± 0.00454
x2 = 0.1339	-0.166 ± 0.00693
x2 = 0.1824	-0.211 ± 0.0086
x2 = 0.2243	-0.246 ± 0.01
x2 = 0.2715	-0.282 ± 0.0115
x2 = 0.3196	-0.305 ± 0.0124
x2 = 0.3825	-0.332 ± 0.0136
x2 = 0.4238	-0.341 ± 0.0139
x2 = 0.4783	-0.342 ± 0.0139
x2 = 0.5362	-0.338 ± 0.0139
x2 = 0.5915	-0.322 ± 0.0131
x2 = 0.6426	-0.303 ± 0.0124
x2 = 0.7121	-0.261 ± 0.0108
x2 = 0.7827	-0.212 ± 0.0086
x2 = 0.8211	-0.178 ± 0.00741
x2 = 0.8916	-0.114 ± 0.00478
x2 = 0.9672	-0.0361 ± 0.00182
